Test [1] addresses T1, Alpha-1B adrenergic receptor (Rattus norvegicus, UniProt P15823).
T1 sequence (P15823 whole entry): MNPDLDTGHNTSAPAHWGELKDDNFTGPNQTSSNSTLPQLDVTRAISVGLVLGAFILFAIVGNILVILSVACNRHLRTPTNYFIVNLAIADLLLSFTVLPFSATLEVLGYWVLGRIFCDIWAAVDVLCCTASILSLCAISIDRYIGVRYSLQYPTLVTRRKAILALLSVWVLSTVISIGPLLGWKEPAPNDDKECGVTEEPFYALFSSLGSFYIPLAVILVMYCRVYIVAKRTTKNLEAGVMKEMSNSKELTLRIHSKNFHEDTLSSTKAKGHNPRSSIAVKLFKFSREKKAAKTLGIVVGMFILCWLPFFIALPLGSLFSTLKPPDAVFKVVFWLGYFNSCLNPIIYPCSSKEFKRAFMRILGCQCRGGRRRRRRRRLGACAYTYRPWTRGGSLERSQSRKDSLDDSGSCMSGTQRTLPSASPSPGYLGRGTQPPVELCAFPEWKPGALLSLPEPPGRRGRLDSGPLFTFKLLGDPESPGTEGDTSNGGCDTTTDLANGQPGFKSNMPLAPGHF
Put plainly: DRUGMATRIX: Alpha-1B adrenergic receptor radioligand binding (ligand: prazosin). Format: cell membranes, Wistar, Liver, Membrane. The following applies: Not Active = under 50% inhibition at 10 µM.

Test [2] can be described thus: DRUGMATRIX: Calcium Channel Type L, Benzothiazepine radioligand binding (ligand: [3H] Diltiazem). It is filed as cell membranes, Rattus norvegicus, Wistar, Brain, Membrane. Conditions: Not Active = under 50% inhibition at 10 µM.
Test [3] addresses C-C chemokine receptor type 5 (Homo sapiens, UniProt P51681). It is filed as cell membranes, Membrane. The following applies: hek293.
The target of test [4] is T2, Muscarinic acetylcholine receptor M2 (Homo sapiens, UniProt P08172). Note: in other assays of this panel Not Active means under 50% inhibition at 10 µM.
T2 sequence (P08172 whole entry): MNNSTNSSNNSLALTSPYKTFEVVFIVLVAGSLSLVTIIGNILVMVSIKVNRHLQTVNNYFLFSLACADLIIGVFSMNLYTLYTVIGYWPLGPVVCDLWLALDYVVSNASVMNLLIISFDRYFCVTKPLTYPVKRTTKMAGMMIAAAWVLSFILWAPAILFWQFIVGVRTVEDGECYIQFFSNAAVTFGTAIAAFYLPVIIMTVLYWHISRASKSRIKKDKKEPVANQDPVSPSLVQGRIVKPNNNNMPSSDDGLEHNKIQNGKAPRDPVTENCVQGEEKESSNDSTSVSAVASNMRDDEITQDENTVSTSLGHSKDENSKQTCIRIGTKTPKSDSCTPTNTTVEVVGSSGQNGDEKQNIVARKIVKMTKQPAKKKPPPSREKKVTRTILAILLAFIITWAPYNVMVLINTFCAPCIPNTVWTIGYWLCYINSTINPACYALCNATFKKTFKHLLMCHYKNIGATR
It is filed as cell membranes, CHO-K1, Membrane. Conditions: cho-k1.

In test [5] the target is Delta-type opioid receptor (Homo sapiens, UniProt P41143). It is filed as cell membranes, HEK293, Membrane. Note: in other assays of this panel Not Active means under 50% inhibition at 10 µM.
Chain of Delta-type opioid receptor (P41143 whole entry): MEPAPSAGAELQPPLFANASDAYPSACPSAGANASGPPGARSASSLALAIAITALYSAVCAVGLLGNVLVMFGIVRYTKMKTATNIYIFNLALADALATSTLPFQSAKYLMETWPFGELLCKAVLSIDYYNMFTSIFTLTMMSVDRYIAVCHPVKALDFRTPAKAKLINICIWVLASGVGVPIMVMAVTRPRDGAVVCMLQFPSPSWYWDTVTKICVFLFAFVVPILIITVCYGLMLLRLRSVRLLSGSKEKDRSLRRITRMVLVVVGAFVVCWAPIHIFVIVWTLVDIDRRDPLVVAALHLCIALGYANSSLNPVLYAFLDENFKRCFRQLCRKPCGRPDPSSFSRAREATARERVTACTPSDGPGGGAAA
Test [6] deals with T3, Adenosine receptor A1 (Homo sapiens, UniProt P30542).
T3 sequence (P30542 whole entry): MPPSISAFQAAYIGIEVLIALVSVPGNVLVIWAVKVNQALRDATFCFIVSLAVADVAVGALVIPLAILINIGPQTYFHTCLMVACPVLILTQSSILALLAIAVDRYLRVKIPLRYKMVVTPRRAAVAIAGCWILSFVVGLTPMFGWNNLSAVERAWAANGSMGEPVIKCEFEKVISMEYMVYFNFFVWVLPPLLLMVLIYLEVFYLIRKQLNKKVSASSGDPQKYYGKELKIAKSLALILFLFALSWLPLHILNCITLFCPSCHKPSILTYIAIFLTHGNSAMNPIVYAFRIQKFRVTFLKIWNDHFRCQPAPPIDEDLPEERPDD
Format: cell membranes, CHO, Membrane. The following applies: for Ki: read-out: Ki.

From ChEMBL document CHEMBL1909046, “DrugMatrix in vitro pharmacology data” come the findings set out here.

Chain of C-C chemokine receptor type 5 (P51681 whole entry): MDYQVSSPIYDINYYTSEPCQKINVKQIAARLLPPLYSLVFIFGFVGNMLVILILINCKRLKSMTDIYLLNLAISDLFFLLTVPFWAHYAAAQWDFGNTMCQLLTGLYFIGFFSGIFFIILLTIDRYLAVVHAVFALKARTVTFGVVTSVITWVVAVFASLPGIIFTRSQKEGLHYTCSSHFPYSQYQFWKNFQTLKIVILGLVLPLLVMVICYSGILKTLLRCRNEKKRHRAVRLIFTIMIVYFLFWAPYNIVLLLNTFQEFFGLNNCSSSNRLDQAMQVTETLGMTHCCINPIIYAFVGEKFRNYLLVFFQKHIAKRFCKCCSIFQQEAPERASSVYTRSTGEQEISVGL

As to `COc1cc(N)nc2[nH]c(-c3ccc(F)cc3)c(-c3ccncc3)c12`, the IC50 result was “Not Active” in test [1]; “Not Active” in test [2]; “Not Active” in test [3]; “Not Active” in test [4]; “Not Active” in test [5] (hek293); 0.887 µM in test [6] (read-out: IC50). For the same compound, the figures for the Ki entry in test [2] and in test [6] were “Not Active” and 0.518 µM, respectively.

`CNS(=O)(=O)Cc1ccc2[nH]cc(CCN(C)C)c2c1`: the IC50 entry in test [1], in test [2], in test [3], in test [4], in test [5] (hek293) and in test [6] (cho) was “Not Active” each time. Also, the Ki entry in test [2] is reported as “Not Active”.

As for `CCCc1nn(C)c2c(=O)[nH]c(-c3cc(S(=O)(=O)N4CCN(C)CC4)ccc3OCC)nc12`, the IC50 in test [1] (read-out: IC50) is 1.46 µM; in test [2] it was “Not Active”; in test [3] it was “Not Active”; in test [4] it was “Not Active”; in test [5] (hek293), “Not Active”; in test [6] (read-out: IC50) it was 1.49 µM. Moreover, the Ki is 0.806 µM in test [1] (read-out: Ki), “Not Active” in test [2] and 0.871 µM in test [6].

Turning to `COc1ccc(/C=C/C(=O)Nc2ccccc2C(=O)O)cc1OC`, the IC50 entry in test [1], in test [2], in test [3], in test [4], in test [5] (hek293) and in test [6] (cho) was “Not Active” in each case. The Ki result in test [2] is given as “Not Active”.

Take `CCOC(N)=O`: the IC50 result in test [1], in test [2], in test [3], in test [4], in test [5] (hek293) and in test [6] (cho) was “Not Active” throughout. Besides, the Ki result in test [2] is “Not Active”.

With `CC(=O)Nc1nnc(S(N)(=O)=O)s1` [ACETAZOLAMIDE], the IC50 result in test [3], in test [4], in test [5] (hek293) and in test [6] (cho) was “Not Active” throughout.

Turning to `O=c1[nH]c2ccccc2n1CCCN1CCC(n2c(=O)[nH]c3cc(Cl)ccc32)CC1` [DOMPERIDONE], the IC50 result in test [3], in test [4], in test [5] (hek293) and in test [6] (cho) was “Not Active” each time.

For `CC1=C(CC(=O)O)c2cc(F)ccc2/C1=C\c1ccc(S(C)(=O)=O)cc1` [EXISULIND], the IC50 entry in test [1], in test [2], in test [3], in test [4], in test [5] (hek293) and in test [6] (cho) was “Not Active” in each case. In test [2], the inhibitory constant (Ki) result was “Not Active”.

On to `CC(C)OC(=O)C(C)(C)Oc1ccc(C(=O)c2ccc(Cl)cc2)cc1` [FENOFIBRATE], for which the IC50 entry in test [3], in test [4], in test [5] (hek293) and in test [6] (cho) was “Not Active” throughout.

On to `OCCN1CCN(CCCN2c3ccccc3Sc3ccc(C(F)(F)F)cc32)CC1` [FLUPHENAZINE], for which the IC50 entry in test [3] was “Not Active”; in test [5] (read-out: IC50), 24 µM; in test [6] (cho), “Not Active”. In addition, in test [5] (read-out: Ki), the Ki amounted to 8.47 µM.

In the case of `CN1C2CCCC1CC(NC(=O)c1nn(C)c3ccccc13)C2` (centres undefined) [GRANISETRON], the IC50 result in test [3], in test [4], in test [5] (hek293) and in test [6] (cho) was “Not Active” each time.

Take `Nc1nc2c(c(=O)[nH]1)N(C=O)C(CNc1ccc(C(=O)N[C@@H](CCC(=O)O)C(=O)O)cc1)CN2` (some centres undefined) [LEUCOVORIN]: the IC50 result in test [1], in test [2], in test [3], in test [4], in test [5] (hek293) and in test [6] (cho) was “Not Active” each time. For the same compound, the Ki entry in test [2] is listed as “Not Active”.

As for `C[C@@H](O)[C@H]1C(=O)N2C(C(=O)O)=C(S[C@@H]3CN[C@H](C(=O)N(C)C)C3)[C@H](C)[C@H]12` [MEROPENEM], the IC50 result in test [1], in test [2], in test [3], in test [4], in test [5] (hek293) and in test [6] (cho) was “Not Active” throughout. Further, the Ki result in test [2] is given as “Not Active”.

In the case of `CC[C@@H](CO)NC(=O)[C@@H]1C=C2c3cccc4c3c(cn4C)C[C@H]2N(C)C1` [METHYSERGIDE], the IC50 result in test [3], in test [4], in test [5] (hek293) and in test [6] (cho) was “Not Active” each time.

As for `CCN(CC)CC#CCOC(=O)C(O)(c1ccccc1)C1CCCCC1` (centres undefined) [OXYBUTYNIN], the IC50 entry in test [3], in test [5] (hek293) and in test [6] (cho) was “Not Active” each time.

As to `O=P(O)(O)C(O)(Cc1cccnc1)P(=O)(O)O` [RISEDRONIC ACID], the concentration for half-maximal inhibition (IC50) entry in test [1], in test [2], in test [3], in test [4], in test [5] (hek293) and in test [6] (cho) was “Not Active” in each case. The Ki result in test [2] was “Not Active”.

With `CN(CCOc1ccc(CC2SC(=O)NC2=O)cc1)c1ccccn1` (centres undefined) [ROSIGLITAZONE], the IC50 entry in test [1], in test [2], in test [3], in test [4], in test [5] (hek293) and in test [6] (cho) was “Not Active” each time. In test [2], the Ki entry is listed as “Not Active”.

In the case of `C=C(C)[C@H]1Cc2c(ccc3c2O[C@@H]2COc4cc(OC)c(OC)cc4[C@@H]2C3=O)O1` [ROTENONE], the IC50 result in test [1], in test [2], in test [3], in test [4], in test [5] (hek293) and in test [6] (cho) was “Not Active” in each case. Besides, the Ki entry in test [2] is reported as “Not Active”.

Regarding `C#CCN(C)[C@H](C)Cc1ccccc1` [SELEGILINE], the IC50 result in test [1], in test [2], in test [3], in test [4], in test [5] (hek293) and in test [6] (cho) was “Not Active” in each case. In addition, in test [2], the Ki entry is on record as “Not Active”.

As for `CO[C@H]1C[C@@H]2CC[C@@H](C)[C@@](O)(O2)C(=O)C(=O)N2CCCC[C@H]2C(=O)O[C@H]([C@H](C)C[C@@H]2CC[C@@H](O)[C@H](OC)C2)CC(=O)[C@H](C)/C=C(\C)[C@@H](O)[C@@H](OC)C(=O)[C@H](C)C[C@H](C)/C=C/C=C/C=C/1C` [SIROLIMUS], the 50% inhibitory concentration (IC50) entry in test [1], in test [2], in test [3], in test [4], in test [5] (hek293) and in test [6] (cho) was “Not Active” in each case. Moreover, in test [2], the Ki result was “Not Active”.

For `CN[C@@H]1[C@H](O)[C@H](NC)[C@H]2O[C@@]3(O)C(=O)C[C@@H](C)O[C@H]3O[C@@H]2[C@H]1O` [SPECTINOMYCIN], the IC50 entry in test [1], in test [2], in test [3], in test [4], in test [5] (hek293) and in test [6] (cho) was “Not Active” in each case. Moreover, in test [2], the Ki result is on record as “Not Active”.

As to `Nc1ccc(S(=O)(=O)Nc2ncccn2)cc1` [SULFADIAZINE], the IC50 entry in test [1], in test [2], in test [3], in test [4], in test [5] (hek293) and in test [6] (cho) was “Not Active” each time. In addition, in test [2], the inhibition constant (Ki) entry is reported as “Not Active”.

With `O=c1n(CCCN2CCN(c3cccc(Cl)c3)CC2)nc2ccccn12` [TRAZODONE], the 50% inhibitory concentration (IC50) entry in test [3], in test [4], in test [5] (hek293) and in test [6] (cho) was “Not Active” throughout.

What is called IC50 is the concentration needed to halve the response being measured. The term Ki denotes the equilibrium dissociation constant of an inhibitor or competing ligand from its target.
